The target in one data set is T1, USP2 (Homo sapiens, UniProt O75604).
T1 construct: His tag
T1 sequence (O75604 259-605): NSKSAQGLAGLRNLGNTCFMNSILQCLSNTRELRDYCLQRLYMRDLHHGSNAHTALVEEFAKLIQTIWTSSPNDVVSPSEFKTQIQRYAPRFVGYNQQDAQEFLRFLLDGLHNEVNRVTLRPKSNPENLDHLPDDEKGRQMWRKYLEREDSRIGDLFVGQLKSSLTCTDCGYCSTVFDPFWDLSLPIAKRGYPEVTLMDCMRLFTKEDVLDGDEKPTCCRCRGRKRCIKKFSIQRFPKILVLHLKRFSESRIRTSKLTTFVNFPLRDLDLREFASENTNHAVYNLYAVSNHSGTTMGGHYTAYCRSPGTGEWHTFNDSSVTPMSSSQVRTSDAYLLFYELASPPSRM
The experiment in a line: hUSP2 Ub-rhodamine 110 assay. Format: biochemical. To be noted: arithmetic means of multiple measurements; read-out: IC50 hUSP2 Ub-Rhod. As for the experimental part:
The final assay volume was 6 μL.

Another data set can be described thus: log D measurement (HPLC). To be noted: reverse-phase HPLC, pH 7.5, pH 7.5, HPLC method; read-out: logD7.5. The data set is classed as physicochemical. As for the experimental part:
log D values at pH 7.5 were recorded using an indirect method for determining hydrophobicity constants by reverse-phase HPLC. A series of compounds with well-known log D values were used for calibration. Test compounds were injected into the same HPLC system. The lipophilicity of compounds was then assessed by comparison to the calibration curve.

Data set [1] addresses T2, USP21 (Homo sapiens, UniProt Q9UK80).
T2 sequence (Q9UK80 1-565): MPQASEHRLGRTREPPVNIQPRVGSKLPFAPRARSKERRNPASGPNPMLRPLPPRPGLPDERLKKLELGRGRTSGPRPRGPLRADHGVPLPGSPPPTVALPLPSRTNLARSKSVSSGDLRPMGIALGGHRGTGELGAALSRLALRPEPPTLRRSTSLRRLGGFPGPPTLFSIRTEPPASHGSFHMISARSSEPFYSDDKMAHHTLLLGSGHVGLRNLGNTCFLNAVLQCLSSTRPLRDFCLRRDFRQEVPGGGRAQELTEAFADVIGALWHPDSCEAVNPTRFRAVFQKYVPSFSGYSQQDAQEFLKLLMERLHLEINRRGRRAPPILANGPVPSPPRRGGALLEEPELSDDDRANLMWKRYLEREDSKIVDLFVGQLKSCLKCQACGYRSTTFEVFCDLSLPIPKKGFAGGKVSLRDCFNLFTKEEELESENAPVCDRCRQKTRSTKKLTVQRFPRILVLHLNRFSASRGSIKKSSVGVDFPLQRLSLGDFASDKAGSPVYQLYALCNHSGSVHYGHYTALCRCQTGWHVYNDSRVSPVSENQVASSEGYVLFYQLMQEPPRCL
Procedure: To this end, we developed a USP21 activity assay that is based on the deubiquitination of a STING-derived peptide (a USP21-specific substrate[17],[18]) by purified recombinant human full-length USP21 using time-resolved fluorescence resonance energy transfer (TR-FRET) technology (referred to as a homogeneous time-resolved fluorescence (HTRF)-assay, for details see the Supporting Information).[39]
All substrate and enzyme solutions were diluted in an assay buffer. […] Incubation time was 15–20 min at room temperature. […] The stop solution (DUB inhibitor PR619, Abcam) was prepared in 25 mM HEPES, pH 7.5 (Alfa Aesar) containing 0.01% BSA and then left for 10 min at room temperature before filtering with a 0.2 μM PES Membrane (Thermo Fisher). The reaction was stopped with the addition of 2 μL of 200 μM PR619. […] The plates were measured on the ViewLux in screening or PHERAstar FSX in compound profiling. […] The number of flashes per well was set to 3. All of the experimental data were plotted using Genedata analysis. The Z′-factor and S/B of the assay were >0.7 and ∼2, respectively.

Data set [2] addresses T2, USP21. The source holds these as a separate data set.
Procedure: The final assay volume was 6 μL. […] First, 2 μL of 1 nM USP21 (or selectivity enzyme) solution was added to the compound plate and preincubated for 15–20 min at room temperature. […] The reaction was stopped by 50 mM citric acid in 25 mM HEPES, pH 7.5, containing 0.01% BSA. […] The USP21 and USP22 were measured with five flashes and USP2 and USP7 in fly mode.
For data set [3], the target named is T2, USP21. The experiment in a line: Thermal shift assay (TSA). Format: binding. The arrangement: purchased Ubiquigent (DUBprofiler service). As to conditions: 100 μM compound. As for the experimental part: Experiments were carried out with the QuantStudio7 Flex Real-Time PCR system (Thermo Fisher Scientific) in a 384-well plate format with 5 μL of reaction volume. Melting curves were obtained at an USP21 protein concentration of 3.8 μM and 5xSYPRO Orange (Invitrogen) using a buffer containing 20 mM Tris, pH 7.5; 150 mM NaCl; 10% glycerol; and 1.0 mM TCEP. […] For binding experiments, compounds were added from 10 mM stock solution to a final concentration of 100 μM. As a control, 1% DMSO was used. Scans were measured from 25 to 95 °C at a scanning rate of 4 °C/min. All TSA data were analyzed using a Genedata Assay Analyzer.

Data set [4] addresses T3, USP21 (Homo sapiens, UniProt Q9UK80).
T3 construct: made in house; host or cells: E. coli BL21(DE3)
The experiment in a line: SPR binding. As to conditions: single-cycle kinetics, 15 °C.
Procedure: For binding analysis, a multi-cycle protocol was chosen with a contact time of 60 s, a flow rate of 30 μL/min, and a dissociation time of 200 s. Binding constants were calculated from the steady state using Biacore Insight Evaluation Software, assuming a 1:1 binding model as an average of four titrations. […] Immobilization levels were kept similar to the above. […] The running buffer of the duplicate measurements is 10 mM HEPES, pH 7.4, 150 mM NaCl, 0,005% surfactant P20 further supplemented with 2 mg/mL BSA and 1% DMSO. Affinity and kinetic analysis were performed using Biacore Insight Evaluation Software on double reference subtracted sensorgrams.

The next data set is described as follows: Aqueous solubility. Format: physicochemical. As to conditions: PBS pH 6.5, pH 6.5, PBS pH 6.5. Here is the method: Test compounds were applied as DMSO solutions or directly from powder. After the addition of the buffer, solutions were shaken at rt for 24 h. The undissolved material was removed by filtration or centrifugation. The compound dissolved in the supernatant was quantified by HPLC-UV or HPLC-MS/MS.

Another data set can be described thus: in vitro. The data set is classed as in vitro ADME. As to conditions: human, Caco-2, pH 7.2. As for the experimental part:
Caco-2 cells [purchased from the German Collection of Microorganisms and Cell Cultures (DSMZ)] were seeded at a density of 4.5 × 10^4 cells/well on 24-well insert plates [0.4 μm pore size, 0.3 cm^2 (Costar)] and grown for 13–15 days in DMEM medium supplemented with 10% fetal calf serum (FCS), 1% GlutaMAX (100×, Gibco), 100 U/mL penicillin, 100 μg/mL streptomycin (Gibco), and 1% nonessential amino acids (100×, Thermo Fischer Scientific). […] The medium was changed every 2–3 days.
The bidirectional transport assay for the evaluation of Caco-2 permeability was undertaken in 24-well insert plates using a robotic system (Tecan). Before the assay was run, the culture medium was replaced by a transport medium (FCS-free HEPES carbonate transport buffer pH 7.2). For the assessment of monolayer integrity, the transepithelial electrical resistance (TEER) was measured. Only monolayers with a TEER of at least 400 Ω·cm^2 were used. Test compounds were pre-dissolved in DMSO and added either to the apical or basolateral compartment at a final concentration of 2 μM. The evaluation was performed in triplicate. […] The efflux ratio (ER) basolateral (B) to apical (A) was calculated by dividing Papp B–A by Papp A–B.

In a further data set the test system is NF-κB activation. The experiment in a line: NF-κB reporter assay. Format: cell-based. As to conditions: HEK293T cells, up to 10 μM. As for the experimental part:
Yang and colleagues reported that USP21 inhibition induces NF-κB activation by preventing deubiquitination of RIP1.[15] K63 ubiquitinated RIP1 is required for NF-κB activation, and thus USP21-mediated deubiquitination of RIP1 shuts down the NF-κB pathway.
Four hours after replating, cells were treated with compounds or DMSO (note: DMSO concentrations were kept consistent across all cells). Promega Dual-Luciferase Reporter Assay kit was then used to prepare samples for Firefly and Renilla signal measurement on a CLARIOstar microplate reader (BMG) 20 h after compound treatment. Relative luciferase units were calculated by normalizing the Firefly signal to the background Renilla signal, followed by normalization to DMSO controls of wild-type USP21.

Data set [5] addresses T4, C-terminal HiBiT-tagged USP21 (Homo sapiens, UniProt Q9UK80).
T4 construct: expressed in transfected cells; host or cells: HEK293T
T4 sequence (Q9UK80 1-565): T2 sequence (Q9UK80 1-565)
The experiment in a line: USP21 HiBiT CETSA. The data set is classed as cell-based. As to conditions: 49 °C, HEK293T cells. Here is the method:
In particular, we utilized a HiBiT CETSA assay format[42],[43] conducted in intact HEK293T cells. Cells were transfected with USP21 fused to a small proluminescent NanoLuc HiBiT tag, which, when complemented with the Large BiT NanoLuc fragment, produces a quantifiable luminescence signal.
HEK293T cells were seeded in a six-well plate at 8 × 10^5 cells/well in 2 mL of DMEM supplemented with 10% FBS, penicillin (100 U/mL), and streptomycin (100 μg/mL) and transfected 4 h after seeding using an X-tremeGENE HP transfection reagent, following the manufacturer’s instructions with a total of 2 μg of plasmid constructs (C-terminally tagged USP21 HiBiT and empty pCDNA3.1 vector). […] The breathable paper adhesive film was then replaced with a PCR adhesive film, and cells were heated at indicated temperatures in an Applied Biosystems VeritiPro thermal cycler for 3 min, followed by 3 min incubation at rt before the addition of LgBiT solution (200 nM LgBiT, 2% NP-40, protease inhibitors (Roche cOmplete, ethylenediaminetetraacetic acid (EDTA)-free Protease Inhibitor) in OptiMEM no phenol red (Gibco)) to lyse cells.
(The HiBiT peptide binds its large partner to form an active luciferase.)

Values after ≈ are worked out from the molar mass of the structure shown. Read-outs that look alike come from different tables or passages of the source. Bounds are passed on as bounds.

As a reminder, the IC50 is the midpoint of a concentration-inhibition curve. Usually ΔTm stands for the shift of the melting midpoint relative to a reference. Consider `O=C(CNC(=O)C1CCCC1)Nc1nnc(Cc2ccc([N+](=O)[O-])cc2)s1` [Compound 2, [O-][N+](=O)c1ccc(Cc2nnc(NC(=O)CNC(=O)C3CCCC3)s2)cc1], for which the IC50 on USP2, against USP21 [1] and against USP21 [2] was greater than 25 µM in each case. For the same compound, the chromatographic logD in the data set “log D measurement (HPLC)” turned out to be 2.1. Also, on USP21 [3], the shift in melting temperature (ΔTm) at 100 µM came to 3.5 °C.

Regarding `CC(C)C(NC(=O)C1CCCC1)C(=O)Nc1nnc(Cc2ccc([N+](=O)[O-])cc2)s1` (centres unmarked) [Compound 3, CC(C)C(NC(=O)C1CCCC1)C(=O)Nc2nnc(Cc3ccc(cc3)[N+](=O)[O-])s2], the 50% inhibitory concentration (IC50) at USP2, at USP21 [1] and against USP21 [2] was greater than 25 µM each time. The chromatographic logD in “log D measurement (HPLC)” was found to be 2.8. Further, the ΔTm at 100 µM on USP21 [3] was 0.3 °C.

Broadly, the Kd is a measure of binding affinity in units of concentration. The low end stands for tighter binding, the high end for weaker binding. The term solubility denotes how much of the substance goes into solution per volume. Lower therefore signals a poorly soluble substance. For orientation: Papp A→B means how fast a substance crosses the layer from the apical side. A higher Papp A→B goes with fast passage. Take `N#Cc1ccc(Cc2nnc(NC(=O)[C@@H](CO)NC(=O)C3(C(F)(F)F)CCCCC3)s2)cc1` [Compound 18, OC[C@@H](NC(=O)C1(CCCCC1)C(F)(F)F)C(=O)Nc2nnc(Cc3ccc(cc3)C#N)s2]: binding at USP21 [4] was characterised by a dissociation constant (Kd) of 0.0058 µM. In addition, the chromatographic logD in the data set “log D measurement (HPLC)” was determined as 2.5. Further, in the data set “Aqueous solubility”, the concentration in solution (solubility at 24 h) came to 91.2 µM (≈ 43.9 µg/mL). In the data set “in vitro” (2 μM, 2 h), the Papp A→B at 2 h, 2 µM stood at 1.4 ×10⁻⁶ cm/s. In addition, in the data set “in vitro” (Papp B–A / Papp A–B, read-out: Caco-2 efflux ratio (ER)), the efflux ratio at 2 h, 2 µM was found to be 14. The “NF-κB activation (in words)” value in the data set on NF-κB activation was “cellular activity was not observed”. Also, in [5], the “cellular thermal stabilization of USP21 (in words)” value is “strong cellular target engagement”.

Source of the values: paper PMC10009755, “Discovery and Characterization of BAY-805, a Potent and Selective Inhibitor of Ubiquitin-Specific Protease USP21” (Journal of Medicinal Chemistry, 2023).
